The values that follow come from patent US20160175379A1, “COMBINATION THERAPY FOR THE TREATMENT OF ISCHEMIA-REPERFUSION INJURY” (STEALTH BIO THERAPEUTICS CORP, priority 2013, published 2016).

Experiment [1] relates to cardiac ischemia-reperfusion injury. The experiment in a line: Large animal model of acute myocardial infarction injury (cardiac ischemia-reperfusion). The format is in vivo, sheep or pig. The settings on record: peptide given prior to ischemia. The protocol:
The effects of aromatic-cationic peptides and cardiovascular agent in protecting against cardiac ischemia-reperfusion injury in a large animal model (e.g., a porcine or ovine model) are investigated.
The animals are sedated with intramuscular ketamine (50 mg/kg), glycopyrrolate (0.2 mg/kg), and buprenorphine (0.05 mg/kg). After intubation, animals are ventilated with a mechanical respirator (Hallowell EMC Model AWS; Hallowell, Pittsfield, Mass.) using room air enriched with 0.6 L/min oxygen. Catheters are introduced into a small auricular artery and vein, and into the right jugular vein for the continuous measurement of blood pressure and the administration of intravenous medications. […] Heart rate, blood pressure, surface electrocardiogram, and rectal temperature are continuously monitored (Hewlett Packard 78534C; Palo Alto, Calif.). […]
Animals undergo a left thoracotomy, and silicone vascular loops (Quest Medical, Allen, Tex.) are placed around the left anterior descending artery and its second diagonal branch, which is 40% of the distance from the apex to the base of the heart. […] Arterial blood pressure, heart rate, surface electrocardiograms (ECG), and rectal temperature are continuously monitored (Hewlett Packard 78534C; Palo Alto, Calif.) throughout the protocol in all animals. […]

For experiment [2], the system named is acute myocardial infarction injury. The experiment in a line: Acute myocardial infarction injury (ischemia/reperfusion) in a rabbit model. The format is in vivo, New Zealand white rabbits. Particulars: 30 min ischemia, 3 h reperfusion, IV infusion, compared to the control (vehicle alone) group. The protocol: The effects of a combination of aromatic-cationic peptides and a cardiovascular agent in protecting against an acute myocardial infarction injury in a rabbit model are investigated.
New Zealand white rabbits are used in this study. The rabbits are males and >10 weeks in age. Environmental controls in the animal rooms are set to maintain temperatures of 61° to 72° F. and relative humidity between 30% and 70%. Room temperature and humidity are recorded hourly, and monitored daily. There are approximately 10-15 air exchanges per hour in the animal rooms. Photoperiod is 12-hr light/12-hr dark (via fluorescent lighting) with exceptions as necessary to accommodate dosing and data collection. Routine daily observations are performed. Harlan Teklad, Certified Diet (2030C), rabbit diet is provided approximately 180 grams per day from arrival to the facility. […]
In all cases, treatments are started approximately 10 min after the onset of a 30 min ischemic insult (coronary occlusion) and continued for up to 3 h following reperfusion. In all cases, cardiovascular function is monitored both prior to and during ischemia, as well as for up to 180 min (3 h) post-reperfusion. The experiments are terminated 3 h post-reperfusion (end of study); irreversible myocardial injury (infarct size by histomorphometery) at this time-point is evaluated, and is the primary-end-point of the study. […]

For D-Arg-2′6′-Dmt-Lys-Phe-NH2 [peptide], the “redox ratio (RR) during ischemia” value in experiment [1] was “blunted drop in the RR during ischemia”. Besides, the “infarct size and apoptotic cell death” value in experiment [2] is listed as “significantly reduced”.
